Key:
[1] = tested on: A375 human melanoma xenografts; test: Example 8 efficacy study in A375 human melanoma xenografts (tumor volume, T/C, TGI); format: in vivo, BALB/c nude mice; conditions: 10 mg/kg, p.o.
Method: For efficacy study, agents were tested in the A375 human melanoma xenografts model. Compound 8, Compound 26, and Compound 38 were administered to BALB/c nude mice bearing A375 xenografts from day 0 and dosed p.o. twice per day (BID). Compound 8 and Compound 26 were dosed at 10 mg/kg for 21 days. Compound 38 was dosed at 10 mg/kg for 10 days. The known BRAF inhibitor encorafenib was used as a positive control. encorafenib was administered from day 1 and dosed p.o. daily (QD) for 21 days and dosed at 35 mg/kg.
(§1) The A375 tumor cells were maintained in vitro in DMEM medium supplemented with 10 fetal bovine serum and 1% Penicillin-Streptomycin at 37° C. in an atmosphere of 5% CO2 in air. The tumor cells were routinely subcultured twice weekly. The cells growing in an exponential growth phase were harvested and counted for tumor inoculation.
Each mouse was inoculated subcutaneously at the right flank with A375 cells (5×10^6) in 0.2 mL of PBS supplemented with Matrigel (PBS:Matrigel=1:1) for tumor development. Animals were grouped for treatment 16 days after tumor inoculation when the average tumor volume reached 234 mm^3 for efficacy study and 382 mm^3 for PKPD study. The test articles administration and the animal numbers in each group are shown in the above experimental tables.
(§2) Prior to the onset of drug treatment, mice were measured for tumor size in two dimensions using a caliper, and the tumor volume (mm^3) was calculated using formula V=0.5 a×b^2 where a and b are the long and short diameters of the tumor in mm, respectively. Mice were randomized into different treatment groups based on the tumor volume.
(§3) The major endpoint was to see if the tumor growth could be delayed or mice could be cured. The tumor size was then used for calculations of T/C value. The T/C value (in percent) is an indication of antitumor effectiveness; T and C are the mean volumes of the treated and control groups, respectively on specified day.
(§4) TGI was calculated for each group using the formula: TGI (%)=[1−(Ti−T0)/(Ci−C0)]×100; Ti is the average tumor volume of a treatment group on a given day, T0 is the average tumor volume of the treatment group on the day of treatment start, Ci is the average tumor volume of the vehicle control group on the same day with Ti, and C0 is the average tumor volume of the vehicle group on the day of treatment start.

[2] = tested on: A375 human melanoma xenografts; test: Example 7 efficacy study in A375 human melanoma xenografts (tumor volume, T/C, TGI); format: in vivo, BALB/c nude mice; conditions: 10 mg/kg, p.o.; for T/C / TGI / Tumor Size on PG-D14 (mean ± SEM): PG-D14
Method: For efficacy study, agents were tested in the A375 human melanoma xenografts. Compound 118, Compound 156, and Compound 180 were administered to BALB/c nude mice bearing A375 xenografts from day 0 and dosed p.o. twice per day (BID). Compound 141 was administered from day 0 and dosed p.o. twice per day (BID) or dosed p.o. daily (QD) from day 1. Compound 141, Compound 118, Compound 156, and Compound 180 were dosed at 10 mg/kg for 14 days. The known BRAF inhibitor Dabrafenib was used as a positive control. Dabrafenib was administered from day 1 and dosed p.o. daily (QD) for 14 days and dosed at 100 mg/kg.
as §1, with “[…]” for “10”
Each mouse was inoculated subcutaneously at the right flank with A375 tumor cells (5×10^6) in 0.2 mL of PBS with Matrigel (PBS: Matrigel=1:1) supplemented for tumor development. Animals were grouped when the average tumor volume reached 246 mm^3 for efficacy study and 390 mm^3 for PKPD study on day 17 after tumor inoculation. The test articles administration and the animal numbers in each group are shown in the above experimental tables.
as §2, §3, §4

CCN(C)S(=O)(=O)Nc1ccc(F)c(Oc2ccc3ncn(C4CC5(CCN(C6CCC(c7cc8c(cc7F)c(N7CCC(=O)NC7=O)nn8C)CC6)CC5)C4)c(=O)c3c2)c1C#N (single isomer, unassigned) [Compound 8, 6-[2-cyano-3-[[ethyl(methyl)sulfamoyl]amino]-6-fluoro-phenoxy]-3-[7-[4-[3-(2,4-dioxohexahydropyrimidin-1-yl)-5-fluoro-1-methyl-indazol-6-yl]cyclohexyl]-7-azaspiro[3.5]nonan-2-yl]-4-oxo-quinazoline]
T/C ([1]; BID × 21 days, PG-D21): 1.29% | TGI ([1]; BID × 21 days, PG-D21): 114.48% | Tumor Size on PG-D21 (Mean ± SEM) ([1]; BID × 21 days, PG-D21): 22 ± 3 mm^3 | Tumor Volume (mean ± SEM) ([1]; BID × 21 days, day 0): 234 ± 7 mm^3 | Tumor Volume (mean ± SEM) ([1]; BID × 21 days, day 3): 185 ± 6 mm^3 | Tumor Volume (mean ± SEM) ([1]; BID × 21 days, day 6): 105 ± 9 mm^3 | Tumor Volume (mean ± SEM) ([1]; BID × 21 days, day 9): 57 ± 4 mm^3 | Tumor Volume (mean ± SEM) ([1]; BID × 21 days, day 13): 32 ± 4 mm^3 | Tumor Volume (mean ± SEM) ([1]; BID × 21 days, day 17): 28 ± 3 mm^3 | Tumor Volume (mean ± SEM) ([1]; BID × 21 days, day 21): 22 ± 3 mm^3

CCN(C)S(=O)(=O)Nc1ccc(F)c(Oc2ccc3ncn([C@H]4COC5(CCC(N6CCC(c7cc8c(cc7F)c(N7CCC(=O)NC7=O)nn8C)C(F)(F)C6)CC5)C4)c(=O)c3c2)c1C#N (single isomer, unassigned) [Compound 38]
T/C ([1]; BID × 10 days, PG-D9): 4.30% | TGI ([1]; BID × 10 days, PG-D9): 134.38% | Tumor Size on PG-D9 (mean ± SEM) ([1]; BID × 10 days, PG-D9): 35 ± 3 mm^3 | Tumor Volume (mean ± SEM) ([1]; BID × 10 days, day 0): 234 ± 7 mm^3 | Tumor Volume (mean ± SEM) ([1]; BID × 10 days, day 3): 134 ± 7 mm^3 | Tumor Volume (mean ± SEM) ([1]; BID × 10 days, day 6): 67 ± 7 mm^3 | Tumor Volume (mean ± SEM) ([1]; BID × 10 days, day 9): 35 ± 3^b mm^3

CCN(C)S(=O)(=O)Nc1ccc(F)c(Oc2ccc3ncc(OCC4CCN(C5CCC(c6cc7c(cc6F)c(N6CCC(=O)NC6=O)nn7C)CC5)CC4)nc3c2)c1C#N (single isomer, unassigned) [Compound 118, 7-[2-cyano-3-[[ethyl(methyl)sulfamoyl]amino]-6-fluoro-phenoxy]-2-[[1-[4-[3-(2,4-dioxohexahydropyrimidin-1-yl)-5-fluoro-1-methyl-indazol-6-yl]cyclohexyl]-4-piperidyl]methoxy]quinoxaline]
T/C ([2]; BID × 14 days): 6.1% | TGI ([2]; BID × 14 days): 115.3% | Tumor Size on PG-D14 (mean ± SEM) ([2]; BID × 14 days): 81 ± 8 mm^3 | Tumor Volume (mean ± SEM) ([2]; BID × 14 days, day 0): 247 ± 14 mm^3 | Tumor Volume (mean ± SEM) ([2]; BID × 14 days, day 3): 326 ± 20 mm^3 | Tumor Volume (mean ± SEM) ([2]; BID × 14 days, day 7): 192 ± 20 mm^3 | Tumor Volume (mean ± SEM) ([2]; BID × 14 days, day 10): 117 ± 13 mm^3 | Tumor Volume (mean ± SEM) ([2]; BID × 14 days, day 14): 81 ± 8 mm^3

CCN(C)S(=O)(=O)Nc1ccc(F)c(Oc2ccc3ncc(C4CC5(CCN(C6CCC(c7cc8c(cc7F)c(N7CCC(=O)NC7=O)nn8C)CC6)CC5)C4)nc3c2)c1C#N (single isomer, unassigned) [Compound 180, 7-[2-cyano-3-[[ethyl(methyl)sulfamoyl]amino]-6-fluoro-phenoxy]-2-[7-[4-[3-(2,4-dioxohexahydropyrimidin-1-yl)-5-fluoro-1-methyl-indazol-6-yl]cyclohexyl]-7-azaspiro[3.5]nonan-2-yl]quinoxaline]
T/C ([2]; BID × 14 days): 7.2% | TGI ([2]; BID × 14 days): 113.9% | Tumor Size on PG-D14 (mean ± SEM) ([2]; BID × 14 days): 96 ± 11 mm^3 | Tumor Volume (mean ± SEM) ([2]; BID × 14 days, day 0): 247 ± 16 mm^3 | Tumor Volume (mean ± SEM) ([2]; BID × 14 days, day 3): 319 ± 22 mm^3 | Tumor Volume (mean ± SEM) ([2]; BID × 14 days, day 7): 222 ± 18 mm^3 | Tumor Volume (mean ± SEM) ([2]; BID × 14 days, day 10): 151 ± 16 mm^3 | Tumor Volume (mean ± SEM) ([2]; BID × 14 days, day 14): 96 ± 11 mm^3

CCN(C)S(=O)(=O)Nc1ccc(F)c(Oc2ccc3ncn([C@H]4COC5(CCN(C6CC7(C6)CN(c6cc8c(cc6F)c(N6CCC(=O)NC6=O)nn8C)C7)CC5)C4)c(=O)c3c2)c1C#N [Compound 26, (3R)-3-[6-[2-cyano-3-[[ethyl(methyl)sulfamoyl]amino]-6-fluoro-phenoxy]-4-oxo-quinazolin-3-yl]-8-[2-[3-(2,4-dioxohexahydropyrimidin-1-yl)-5-fluoro-1-methyl-indazol-6-yl]-2-azaspiro[3.3]heptan-6-yl]-1-oxa-8-azaspiro[4.5]decane]
T/C ([1]; BID × 21 days, PG-D21): 0.97% | TGI ([1]; BID × 21 days, PG-D21): 114.89% | Tumor Size on PG-D21 (Mean ± SEM) ([1]; BID × 21 days, PG-D21): 16 ± 2 mm^3 | Tumor Volume (mean ± SEM) ([1]; BID × 21 days, day 0): 234 ± 7 mm^3 | Tumor Volume (mean ± SEM) ([1]; BID × 21 days, day 3): 148 ± 10 mm^3 | Tumor Volume (mean ± SEM) ([1]; BID × 21 days, day 6): 57 ± 4 mm^3 | Tumor Volume (mean ± SEM) ([1]; BID × 21 days, day 9): 33 ± 3 mm^3 | Tumor Volume (mean ± SEM) ([1]; BID × 21 days, day 13): 21 ± 2 mm^3 | Tumor Volume (mean ± SEM) ([1]; BID × 21 days, day 17): 18 ± 1 mm^3 | Tumor Volume (mean ± SEM) ([1]; BID × 21 days, day 21): 16 ± 2 mm^3

CCN(C)S(=O)(=O)Nc1ccc(F)c(Oc2ccc3ncn(C4CC5(CCN(C6CC7(C6)CN(c6cc8c(cc6F)c(N6CCC(=O)NC6=O)nn8C)C7)CC5)C4)c(=O)c3c2)c1C#N (stereo not shown) [Compound 141, 6-[2-cyano-3-[[ethyl(methyl)sulfamoyl]amino]-6-fluoro-phenoxy]-3-[7-[2-[3-(2,4-dioxohexahydropyrimidin-1-yl)-5-fluoro-1-methyl-indazol-6-yl]-2-azaspiro[3.3]heptan-6-yl]-7-azaspiro[3.5]nonan-2-yl]-4-oxo-quinazoline]
T/C ([2]; BID × 14 days): 2.4% | TGI ([2]; BID × 14 days): 119.8% | Tumor Size on PG-D14 (mean ± SEM) ([2]; BID × 14 days): 32 ± 4 mm^3 | Tumor Volume (mean ± SEM) ([2]; BID × 14 days, day 0): 246 ± 15 mm^3 | Tumor Volume (mean ± SEM) ([2]; BID × 14 days, day 3): 181 ± 15 mm^3 | Tumor Volume (mean ± SEM) ([2]; BID × 14 days, day 7): 109 ± 13 mm^3 | Tumor Volume (mean ± SEM) ([2]; BID × 14 days, day 10): 59 ± 6 mm^3 | Tumor Volume (mean ± SEM) ([2]; BID × 14 days, day 14): 32 ± 4 mm^3 | T/C ([2]; QD × 14 days): 3.0% | TGI ([2]; QD × 14 days): 119.0% | Tumor Size on PG-D14 (mean ± SEM) ([2]; QD × 14 days): 40 ± 6 mm^3 | Tumor Volume (mean ± SEM) ([2]; QD × 14 days, day 0): 246 ± 12 mm^3 | Tumor Volume (mean ± SEM) ([2]; QD × 14 days, day 3): 275 ± 9 mm^3 | Tumor Volume (mean ± SEM) ([2]; QD × 14 days, day 7): 138 ± 13 mm^3 | Tumor Volume (mean ± SEM) ([2]; QD × 14 days, day 10): 81 ± 9 mm^3 | Tumor Volume (mean ± SEM) ([2]; QD × 14 days, day 14): 40 ± 6 mm^3

CCN(C)S(=O)(=O)Nc1ccc(F)c(Oc2ccc3ncn(C4CC5(CCN(C6CCN(c7cc8c(cc7F)c(N7CCC(=O)NC7=O)nn8C)CC6)CC5)C4)c(=O)c3c2)c1C#N [Compound 156, 6-[2-cyano-3-[[ethyl(methyl)sulfamoyl]amino]-6-fluoro-phenoxy]-3-[7-[1-[3-(2,4-dioxohexahydropyrimidin-1-yl)-5-fluoro-1-methyl-indazol-6-yl]-4-piperidyl]-7-azaspiro[3.5]nonan-2-yl]-4-oxo-quinazoline]
T/C ([2]; BID × 14 days): 2.6% | TGI ([2]; BID × 14 days): 119.6% | Tumor Size on PG-D14 (mean ± SEM) ([2]; BID × 14 days): 34 ± 5 mm^3 | Tumor Volume (mean ± SEM) ([2]; BID × 14 days, day 0): 246 ± 13 mm^3 | Tumor Volume (mean ± SEM) ([2]; BID × 14 days, day 3): 203 ± 16 mm^3 | Tumor Volume (mean ± SEM) ([2]; BID × 14 days, day 7): 111 ± 4 mm^3 | Tumor Volume (mean ± SEM) ([2]; BID × 14 days, day 10): 68 ± 3 mm^3 | Tumor Volume (mean ± SEM) ([2]; BID × 14 days, day 14): 34 ± 5 mm^3

From US20260297060A1, “COMPOUNDS FOR THE DEGRADATION OF MUTANT BRAF” (C4 THERAPEUTICS, INC., priority 2023, published 2026)
